Assay results from PubChem BioAssay AID330 (DTP/NCI, 2004).
“And” between values parts separate entries of the source, which are not always exact repeats. Identical values can stand only once. Inconclusive results and toxic doses are left out.

System: P388 leukemia ip, CD2F1 mice, survival T/C
Test: NCI In Vivo Anticancer Drug Screen. Data for tumor model P388 Leukemia (intraperitoneal) in CD2F1 (CDF1) mice
Settings: endpoint: median survival time, higher = longer survival
Outline: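 Mice carrying the transplanted tumor received test compound or vehicle. Survival was recorded in each group, and the value is the treated-group measurement divided by that of the vehicle-treated control group.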

[1] = dose: 50.0 mg/kg/injection, schedule: Q01DX009 (ip), vehicle: saline
[2] = dose: 100.0 mg/kg/injection, schedule: Q01DX009 (ip), vehicle: saline
[3] = dose: 25.0 mg/kg/injection, schedule: Q01DX009 (ip), vehicle: saline
[4] = dose: 100.0 mg/kg/injection, schedule: Q04DX003 (ip), vehicle: saline
[5] = dose: 6.25 mg/kg/injection, schedule: Q01DX009 (ip), vehicle: saline with Tween-80
[6] = dose: 12.5 mg/kg/injection, schedule: Q01DX009 (ip), vehicle: saline with Tween-80
[7] = dose: 25.0 mg/kg/injection, schedule: Q01DX009 (ip), vehicle: saline with Tween-80
[8] = dose: 50.0 mg/kg/injection, schedule: Q01DX005 (ip), vehicle: Klucel (hydroxypropylcellulose) (HPC)
[9] = dose: 100.0 mg/kg/injection, schedule: Q01DX005 (ip), vehicle: Klucel (hydroxypropylcellulose) (HPC)

Q: With `C=C1C(=O)O[C@@H]2C3=C(C)C(=O)C=C[C@]3(C)CC[C@@H]12` as the compound, how does the T/C (dose: 100.0 mg/kg/injection, schedule: Q04DX002 (ip), vehicle: saline with Tween-80) read?
A: 109 % of control

Q: With `[Cu+2].[NH-]C(CC(=O)O)C(=O)O.[NH-]C(CC(=O)O)C(=O)O` (configuration not stated) as the compound, how does the T/C (dose: 7.5 mg/kg/injection, schedule: Q01DX005 (ip), vehicle: saline with Tween-80) read?
A: 98 % of control

Q: And the T/C (dose: 15.0 mg/kg/injection, schedule: Q01DX005 (ip), vehicle: saline with Tween-80)?
A: 100 % of control

Q: And the T/C (dose: 30.0 mg/kg/injection, schedule: Q01DX005 (ip), vehicle: saline with Tween-80)?
A: 111 % of control

Q: Which results are given for `Cc1ccc(NC(=O)Oc2cc(C)c(Br)c(C)c2)cc1Cl`?
A: T/C [1]: 107 % of control; T/C [2]: 95 % of control; T/C (dose: 200.0 mg/kg/injection, schedule: Q01DX009 (ip), vehicle: saline): 91 % of control

Q: What does the source list for `Cc1cc2nncn2c2nnnn12`?
A: T/C (dose: 6.25 mg/kg/injection, schedule: Q01DX005 (ip), vehicle: water): 101 % of control; T/C (dose: 12.5 mg/kg/injection, schedule: Q01DX005 (ip), vehicle: water): 102 % of control; T/C (dose: 25.0 mg/kg/injection, schedule: Q01DX005 (ip), vehicle: water): 108 % of control; T/C (dose: 50.0 mg/kg/injection, schedule: Q01DX005 (ip), vehicle: water): 108 % of control; T/C (dose: 100.0 mg/kg/injection, schedule: Q01DX005 (ip), vehicle: water): 105 % of control; T/C (dose: 200.0 mg/kg/injection, schedule: Q01DX005 (ip), vehicle: water): 101 % of control

Q: How did the T/C [3] turn out when `CC(=O)/C(C)=C/C(=O)O` was run?
A: 100 % of control

Q: What about the T/C (dose: 25.0 mg/kg/injection, schedule: Q04DX003 (ip), vehicle: saline) of the same compound?
A: 104 % of control

Q: And the T/C [1]?
A: 100 % of control

Q: And the T/C (dose: 50.0 mg/kg/injection, schedule: Q04DX003 (ip), vehicle: saline)?
A: 122 % of control

Q: What about the T/C [2] of the same compound?
A: 109 % of control

Q: And the T/C [4]?
A: 100 % of control

Q: For `CCN(CC)CCOc1ccc2c(c1)C(=O)c1cc(OCCN(CC)CC)ccc1-2`, which T/C (dose: 3.13 mg/kg/injection, schedule: Q01DX009 (ip), vehicle: saline with Tween-80) is on record?
A: 109 % of control

Q: And the T/C [5]?
A: 109 % of control

Q: What about the T/C [6] of the same compound?
A: 109 % of control

Q: And the T/C [7]?
A: 100 % of control and 113 % of control

Q: What about the T/C [3] of the same compound?
A: 87 % of control

Q: And the T/C (dose: 50.0 mg/kg/injection, schedule: Q01DX009 (ip), vehicle: saline with Tween-80)?
A: 90 % of control

Q: And the T/C [1]?
A: 100 % of control

Q: And the T/C [2]?
A: 100 % of control

Q: Which T/C (dose: 50.0 mg/kg/injection, schedule: Q01DX005 (ip), vehicle: saline + Tween-80 + alcohol) does the source give for `NC(=S)C(Cl)(Cl)Cl` here?
A: 116 % of control

Q: And the T/C (dose: 100.0 mg/kg/injection, schedule: Q01DX005 (ip), vehicle: saline + Tween-80 + alcohol)?
A: 119 % of control

Q: What about the T/C (dose: 200.0 mg/kg/injection, schedule: Q01DX005 (ip), vehicle: saline + Tween-80 + alcohol) of the same compound?
A: 113 % of control

Q: Which results are given for `CC(/C=N\Nc1ccc(C(=O)O)cc1)=N/N=C(N)N`?
A: T/C [4]: 99 % of control; T/C (dose: 200.0 mg/kg/injection, schedule: Q04DX003 (ip), vehicle: saline): 98 % of control; T/C (dose: 400.0 mg/kg/injection, schedule: Q04DX003 (ip), vehicle: saline): 100 % of control

Q: For `OCCN1CCN(CCCN2c3cscc3Sc3ccc(Cl)cc32)CC1`, which T/C [8] is on record?
A: 94 % of control and 95 % of control

Q: And the T/C [9]?
A: 101 % of control

Q: Which T/C [8] does the source give for `Cc1nn2c(-c3ccccc3)cnnc2c1-c1ccccc1` here?
A: 101 % of control

Q: And the T/C [9]?
A: 98 % of control

Q: And the T/C (dose: 200.0 mg/kg/injection, schedule: Q01DX005 (ip), vehicle: Klucel (hydroxypropylcellulose) (HPC))?
A: 96 % of control

Q: For `CCCCN(C)C(=S)N/N=C(\C)c1ccccn1`, which T/C [5] is on record?
A: 98 % of control

Q: What about the T/C [6] of the same compound?
A: 101 % of control

Q: And the T/C [7]?
A: 111 % of control

Q: With `CCCC1SCC(=O)N1c1nncs1` (configuration not stated) as the compound, how does the T/C (dose: 30.0 mg/kg/injection, schedule: Q01DX005 (ip), vehicle: Klucel (hydroxypropylcellulose) (HPC)) read?
A: 94 % of control

Q: And the T/C (dose: 60.0 mg/kg/injection, schedule: Q01DX005 (ip), vehicle: Klucel (hydroxypropylcellulose) (HPC))?
A: 104 % of control and 111 % of control

Q: What about the T/C (dose: 100.0 mg/kg/injection, schedule: Q01DX001 (ip), vehicle: Klucel (hydroxypropylcellulose) (HPC)) of the same compound?
A: 96 % of control

Q: And the T/C (dose: 120.0 mg/kg/injection, schedule: Q01DX005 (ip), vehicle: Klucel (hydroxypropylcellulose) (HPC))?
A: 120 % of control

Q: And the T/C (dose: 200.0 mg/kg/injection, schedule: Q01DX001 (ip), vehicle: Klucel (hydroxypropylcellulose) (HPC))?
A: 103 % of control

Q: What about the T/C (dose: 240.0 mg/kg/injection, schedule: Q01DX005 (ip), vehicle: Klucel (hydroxypropylcellulose) (HPC)) of the same compound?
A: 166 % of control
